The numbers were not newly measured in PubChem BioAssay AID1259409 (Chemical Carcinogenesis Research Information System (CCRIS), 2018), which cites them from elsewhere.

The subject of this data set is rodent chemically induced tumor inhibition, incidence and multiplicity. In words: CCRIS tumor inhibitor studies.

Turning to `O=c1cc(-c2ccccc2)oc2c1ccc1ccccc12`, the “tumour outcome (control, treated, inhibition, significance)” value is 63%, 36%, 42%, not significant (Carcinogen: 2-AMINO-1-METHYL-6-PHENYLIMIDAZO[4,5-B]PYRIDINE [105650-23-5], Dose [Inhibitor]: 1,000 PPM IN DIET FOR 4 WK BEGINNING WK PRIOR TO FIRST CARCINOGEN DOSE (STUDY DURATION: 25 WK), Route [Inhibitor]: ORAL, Species: RAT, Strain/Sex: SPRAGUE-DAWLEY/FEMALE, Target Tissue: Type of Lesion: MAMMARY GLAND: FIBROADENOMA OR DUCTAL CARCINOMA, Dose [Carcinogen]: 85 MG/KG BW 2/WK FOR 4 WK (STUDY DURATION: 25 WK), Promoter: NONE); 57%, 60%, -5%, not calculated (Carcinogen: 6-HYDROXYMETHYLBENZO[A]PYRENE, 21247-98-3, Dose [Inhibitor]: 100 UG IN 0.2 ML ACETONE ONCE 5 MINUTES BEFORE CARCINOGEN TREATMENT (STUDY DURATION: 31 WK), Route [Inhibitor]: DERMAL, Species: MOUSE, Strain/Sex: CD-1/FEMALE, Target Tissue: Type of Lesion: SKIN: PAPILLOMA, Dose [Carcinogen]: 400 NMOL IN 0.2 ML ACETONE ONCE, Promoter: 12-O-TETRADECANOYLPHORBOL-13-ACETATE, 16561-29-8); 73%, 40%, 44%, not calculated (Carcinogen: 6-METHYLBENZO[A]PYRENE, 2381-39-7, Dose [Inhibitor]: 100 UG IN 0.2 ML ACETONE ONCE 5 MINUTES BEFORE CARCINOGEN TREATMENT (STUDY DURATION: 31 WK), Route [Inhibitor]: DERMAL, Species: MOUSE, Strain/Sex: CD-1/FEMALE, Target Tissue: Type of Lesion: SKIN: PAPILLOMA, Dose [Carcinogen]: 400 NMOL IN 0.2 ML ACETONE ONCE, Promoter: 12-O-TETRADECANOYLPHORBOL-13-ACETATE, 16561-29-8); 100%, 100%, 0% (Carcinogen: 7,12-DIMETHYLBENZ[A]ANTHRACENE, 57-97-6, Dose [Inhibitor]: 0, 0.37 NMOL IN 0.2 ML ACETONE APPLIED 5 MIN PRIOR TO CARCINOGEN (STUDY DURATION: 21 WK), Route [Inhibitor]: DERMAL, Species: MOUSE, Strain/Sex: SENCAR/FEMALE, Target Tissue: Type of Lesion: SKIN: PAPILLOMA, Dose [Carcinogen]: 40 NMOL IN 0.2 ML ACETONE ONCE, Promoter: 12-O-TETRADECANOYLPHORBOL-13-ACETATE, 16561-29-8); 100%, 100%, 0% (Carcinogen: 7,12-DIMETHYLBENZ[A]ANTHRACENE, 57-97-6, Dose [Inhibitor]: 0, 3.7 NMOL IN 0.2 ML ACETONE APPLIED 5 MIN PRIOR TO CARCINOGEN (STUDY DURATION: 21 WK), Route [Inhibitor]: DERMAL, Species: MOUSE, Strain/Sex: SENCAR/FEMALE, Target Tissue: Type of Lesion: SKIN: PAPILLOMA, Dose [Carcinogen]: 40 NMOL IN 0.2 ML ACETONE ONCE, Promoter: 12-O-TETRADECANOYLPHORBOL-13-ACETATE, 16561-29-8); 79%, 60%, 24%, not calculated (Carcinogen: 7,12-DIMETHYLBENZ[A]ANTHRACENE, 57-97-6, Dose [Inhibitor]: 0, 37 NMOL IN 0.2 ML ACETONE APPLIED 5 MIN PRIOR TO CARCINOGEN (STUDY DURATION: 21 WK), Route [Inhibitor]: DERMAL, Species: MOUSE, Strain/Sex: SENCAR/FEMALE, Target Tissue: Type of Lesion: SKIN: PAPILLOMA, Dose [Carcinogen]: 10 NMOL IN 0.2 ML ACETONE ONCE, Promoter: 12-O-TETRADECANOYLPHORBOL-13-ACETATE, 16561-29-8). The “tumour outcome (control, treated, inhibition, significance)” value is given as 100%, 87%, 13%, not calculated (Carcinogen: 7,12-DIMETHYLBENZ[A]ANTHRACENE, 57-97-6, Dose [Inhibitor]: 0, 37 NMOL IN 0.2 ML ACETONE APPLIED 5 MIN PRIOR TO CARCINOGEN (STUDY DURATION: 21 WK), Route [Inhibitor]: DERMAL, Species: MOUSE, Strain/Sex: SENCAR/FEMALE, Target Tissue: Type of Lesion: SKIN: PAPILLOMA, Dose [Carcinogen]: 40 NMOL IN 0.2 ML ACETONE ONCE, Promoter: 12-O-TETRADECANOYLPHORBOL-13-ACETATE, 16561-29-8); 79%, 46%, 42%, not calculated (Carcinogen: 7,12-DIMETHYLBENZ[A]ANTHRACENE, 57-97-6, Dose [Inhibitor]: 0, 370 NMOL IN 0.2 ML ACETONE APPLIED 5 MIN PRIOR TO CARCINOGEN (STUDY DURATION: 21 WK), Route [Inhibitor]: DERMAL, Species: MOUSE, Strain/Sex: SENCAR/FEMALE, Target Tissue: Type of Lesion: SKIN: PAPILLOMA, Dose [Carcinogen]: 10 NMOL IN 0.2 ML ACETONE ONCE, Promoter: 12-O-TETRADECANOYLPHORBOL-13-ACETATE, 16561-29-8); 100%, 97%, 3%, not calculated (Carcinogen: 7,12-DIMETHYLBENZ[A]ANTHRACENE, 57-97-6, Dose [Inhibitor]: 0, 370 NMOL IN 0.2 ML ACETONE APPLIED 5 MIN PRIOR TO CARCINOGEN (STUDY DURATION: 21 WK), Route [Inhibitor]: DERMAL, Species: MOUSE, Strain/Sex: SENCAR/FEMALE, Target Tissue: Type of Lesion: SKIN: PAPILLOMA, Dose [Carcinogen]: 40 NMOL IN 0.2 ML ACETONE ONCE, Promoter: 12-O-TETRADECANOYLPHORBOL-13-ACETATE, 16561-29-8); 82%, 22%, 73%, not calculated (Carcinogen: 7,12-DIMETHYLBENZ[A]ANTHRACENE, 57-97-6, Dose [Inhibitor]: 25 UG/MOUSE APPLIED 6 HR BEFORE, 5 MIN BEFORE, AND 6 HR AFTER DMBA (STUDY DURATION: 28 WK), Route [Inhibitor]: DERMAL, Species: MOUSE, Strain/Sex: CD-1/FEMALE, Target Tissue: Type of Lesion: SKIN: PAPILLOMA, Dose [Carcinogen]: 2.56 UG APPLIED ONCE 5 MIN AFTER INHIBITOR, Promoter: 12-O-TETRADECANOYLPHORBOL-13-ACETATE, 16561-29-8); 82%, 48%, 41%, not calculated (Carcinogen: 7,12-DIMETHYLBENZ[A]ANTHRACENE, 57-97-6, Dose [Inhibitor]: 25 UG/MOUSE APPLIED ONCE 5 MIN BEFORE DMBA (STUDY DURATION: 28 WK), Route [Inhibitor]: DERMAL, Species: MOUSE, Strain/Sex: CD-1/FEMALE, Target Tissue: Type of Lesion: SKIN: PAPILLOMA, Dose [Carcinogen]: 2.56 UG APPLIED ONCE 5 MIN AFTER INHIBITOR, Promoter: 12-O-TETRADECANOYLPHORBOL-13-ACETATE, 16561-29-8); 90%, 38%, 58%, not calculated (Carcinogen: 7,12-DIMETHYLBENZ[A]ANTHRACENE, 57-97-6, Dose [Inhibitor]: 100 UG IN 0.2 ML ACETONE ONCE 5 MIN BEFORE CARCINOGEN TREATMENT (STUDY DURATION: 31 WK), Route [Inhibitor]: DERMAL, Species: MOUSE, Strain/Sex: CD-1/FEMALE, Target Tissue: Type of Lesion: SKIN: PAPILLOMA, Dose [Carcinogen]: 10 NMOL IN 0.2 ML ACETONE ONCE, Promoter: 12-O-TETRADECANOYLPHORBOL-13-ACETATE, 16561-29-8).
